US7452870B2, “Drug-eluting stents coated with P2Y12 receptor antagonist compound” (Inspire Pharmaceuticals, Inc., priority 2000, dated 2008)

Columns and labels:
Format in all cases: cell-based
P2Y6 = P2Y6 (Homo sapiens, UniProt Q15077); experiment: Calcium mobilization assay, P2Y6; set-up: key: no response (NR); settings: activation of P2Y6 receptor;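 note: test compound added first then a maximal dose of the cognate agonist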
P2Y4 = P2Y4 (Homo sapiens, UniProt P51582); experiment: Calcium mobilization assay, P2Y4; set-up: key: no response (NR); settings: activation of P2Y4 receptor;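 note: test compound added first then a maximal dose of the cognate agonist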
[1] = test system: washed platelet (ADP-induced aggregation; P2Y12 receptor); experiment: ADP-induced platelet aggregation, washed platelet preparation; settings: Homo sapiens, inhibition of ADP-induced aggregation, washed platelets, average of at least two separate experiments
Procedure: Blood was collected from healthy volunteers into syringes containing ⅙ final blood volume of anti-coagulant ACD (65 mM citric acid, 85 mM sodium citrate, 110 mM dextrose) for washed platelet (WP) preparation or into a syringe containing a final concentration of 10 units/mL heparin or 300 μM PPACK for whole blood (WB) assays. The blood collected for whole blood assays was maintained at room temperature and immediately tested as described below. […] These centrifugations and washes were repeated twice following by resuspension in the media described above containing 0.25 U apyrase/mL. Platelet aggregation was measured using the optical mode of a CHRONOLOG® aggregometer (Havertown, Pa.). Five hundred μl of platelet suspension containing 1 mg/mL Fibrinogen were warmed to 37° C. and stirred at 1000 rpm. Indicated concentrations of ADP were added to the sample and aggregation was monitored for 8 minutes. […] For whole blood aggregation, blood was diluted 1:1 with saline and then aggregation was performed in the same manner as described above using the impedance mode of the aggregometer. The potency of agonists and inhibitors of platelet aggregation was calculated from both, the rate of aggregation and the maximal extent of aggregation obtained for each determination by fitting the data to a four-parameter logistic equation using the […]® software package (GraphPad Corp. San Diego, Calif.).
The ability of P2Y12 antagonists to inhibit platelet aggregation is presented in this application as the percent inhibition of the aggregation induced by a maximally effective concentration of ADP.
Data presented are from the average of at least two separate experiments.

P2Y1 = P2Y1 (Homo sapiens, UniProt P47900); experiment: Calcium mobilization assay, P2Y1; set-up: key: no response (NR); settings: activation of P2Y1 receptor;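 note: test compound added first then a maximal dose of the cognate agonist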
P2Y2 = P2Y2 (Homo sapiens, UniProt P41231); experiment: Calcium mobilization assay, P2Y2; set-up: key: no response (NR); settings: activation of P2Y2 receptor;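 note: test compound added first then a maximal dose of the cognate agonist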
Sequence of P2Y2 (P41231 whole entry, species assumed): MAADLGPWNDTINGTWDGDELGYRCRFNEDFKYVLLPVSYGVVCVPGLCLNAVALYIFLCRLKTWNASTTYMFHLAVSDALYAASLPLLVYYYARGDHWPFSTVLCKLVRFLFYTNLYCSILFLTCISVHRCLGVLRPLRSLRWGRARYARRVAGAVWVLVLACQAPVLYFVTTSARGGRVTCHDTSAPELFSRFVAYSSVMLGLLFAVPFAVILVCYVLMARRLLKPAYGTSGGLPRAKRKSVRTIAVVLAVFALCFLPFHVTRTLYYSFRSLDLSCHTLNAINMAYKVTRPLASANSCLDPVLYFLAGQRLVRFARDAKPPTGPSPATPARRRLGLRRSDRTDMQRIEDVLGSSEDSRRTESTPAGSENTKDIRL

Sequence of P2Y4 (P51582 whole entry, species assumed): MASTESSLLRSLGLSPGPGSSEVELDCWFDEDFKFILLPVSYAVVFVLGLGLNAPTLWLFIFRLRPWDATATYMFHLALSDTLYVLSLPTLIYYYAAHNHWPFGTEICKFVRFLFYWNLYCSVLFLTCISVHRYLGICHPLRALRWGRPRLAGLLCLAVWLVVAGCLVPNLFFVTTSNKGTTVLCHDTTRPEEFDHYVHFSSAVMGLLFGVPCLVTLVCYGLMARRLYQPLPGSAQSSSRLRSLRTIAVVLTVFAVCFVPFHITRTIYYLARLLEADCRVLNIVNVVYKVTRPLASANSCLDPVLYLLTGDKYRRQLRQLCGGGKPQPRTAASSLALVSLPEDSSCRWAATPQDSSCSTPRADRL
Sequence of P2Y6 (Q15077 whole entry, species assumed): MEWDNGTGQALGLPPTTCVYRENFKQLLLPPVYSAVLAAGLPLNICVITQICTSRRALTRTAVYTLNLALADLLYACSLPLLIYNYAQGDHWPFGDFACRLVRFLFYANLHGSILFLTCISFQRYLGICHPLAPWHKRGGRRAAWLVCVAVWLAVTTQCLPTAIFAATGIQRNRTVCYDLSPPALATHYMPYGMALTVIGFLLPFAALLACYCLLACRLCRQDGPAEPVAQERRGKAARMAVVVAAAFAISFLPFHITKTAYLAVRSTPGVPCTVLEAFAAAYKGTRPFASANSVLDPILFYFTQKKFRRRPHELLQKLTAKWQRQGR
Sequence of P2Y1 (P47900 whole entry): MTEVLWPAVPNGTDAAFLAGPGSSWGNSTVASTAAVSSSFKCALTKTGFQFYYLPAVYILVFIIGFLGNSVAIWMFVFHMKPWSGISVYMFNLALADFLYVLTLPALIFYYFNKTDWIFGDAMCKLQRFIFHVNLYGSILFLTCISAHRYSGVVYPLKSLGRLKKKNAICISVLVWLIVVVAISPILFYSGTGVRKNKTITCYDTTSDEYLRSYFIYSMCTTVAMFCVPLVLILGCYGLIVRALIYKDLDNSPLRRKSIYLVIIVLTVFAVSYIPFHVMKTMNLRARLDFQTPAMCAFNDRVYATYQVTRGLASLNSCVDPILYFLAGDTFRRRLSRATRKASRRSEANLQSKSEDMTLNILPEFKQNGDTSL

Calcium Mobilization P2Y6 (P2Y6) | Calcium Mobilization P2Y4 (P2Y4) | IC50 [1] | Calcium Mobilization P2Y1 (P2Y1) | Calcium Mobilization P2Y2 (P2Y2) | SMILES
NR | NR | 53 ± 16 nM | NR | NR | CCCCCCNC(=O)Nc1ncnc2c1ncn2[C@@H]1O[C@H](COP(=O)(O)O)C2OC(Cc3ccccc3)O[C@@H]21 (some centres unmarked) [Compound 23, 2′,3′-phenylacetaldehyde acetal-6-N-n-hexylurea AMP]
NR | NR | 41 ± 7 nM | NR | NR | CCNC(=O)Nc1ncnc2c1ncn2[C@@H]1O[C@H](COP(=O)(O)O)C2OC(Cc3ccccc3)O[C@@H]21 (some centres unmarked) [Compound 24, 2′,3′-phenylacetaldehyde acetal-6-N-ethylurea AMP]
NR | NR | 36 ± 9 nM | NR | NR | CCCCCCNC(=O)Nc1ncnc2c1ncn2[C@@H]1O[C@H](COP(=O)(O)O)C2OC(/C=C/c3ccccc3)O[C@@H]21 (some centres unmarked) [Compound 26, 2′,3′-cinnamyl acetal-6-N-n-hexylurea AMP]
NR | NR | 210 nM | NR | NR | CCCCCCNC(=O)Nc1ncnc2c1ncn2[C@@H]1O[C@H](COP(=O)(O)O)C2OC(C#Cc3ccccc3)O[C@@H]21 (some centres unmarked) [Compound 32, 2′,3′-phenylpropargyl acetal-6-N-n-hexylurea AMP]

Second part, the compound before the results:

SMILES | Calcium Mobilization P2Y6 (P2Y6) | Calcium Mobilization P2Y4 (P2Y4) | IC50 [1] | Calcium Mobilization P2Y1 (P2Y1) | Calcium Mobilization P2Y2 (P2Y2)
O=C(Nc1ccccc1)Nc1ncnc2c1ncn2[C@@H]1O[C@H](COP(=O)(O)O)C2OC(Cc3ccccc3)O[C@@H]21 (some centres unmarked) [Compound 22, 2′,3′-phenylacetaldehyde acetal-6-N-phenylurea adenosine 5′-monophosphate] | NR | NR | 160 ± 27 nM | NR | NR
O=C(Nc1ncnc2c1ncn2[C@@H]1O[C@H](COP(=O)(O)O)C2OC(Cc3ccccc3)O[C@@H]21)NC1CCCC1 (some centres unmarked) [Compound 25, 2′,3′-phenylacetaldehyde acetal-6-N-cyclopentylurea AMP] | NR | NR | 36 ± 9 nM | NR | NR
CCNC(=O)Nc1ncnc2c1ncn2[C@@H]1O[C@H](COP(=O)(O)O)C2OC(/C=C/c3ccccc3)O[C@@H]21 (some centres unmarked) [Compound 27, 2′,3′-cinnamyl acetal-6-N-ethylurea adenosine 5′-monophosphate] | NR | NR | 9 ± 3 nM | NR | NR
O=C(Nc1ccccc1)Nc1ncnc2c1ncn2[C@@H]1O[C@H](COP(=O)(O)O)C2OC(/C=C/c3ccccc3)O[C@@H]21 (some centres unmarked) [Compound 28, 2′,3′-cinnamyl acetal-6-N-phenylurea AMP] | NR | NR | 209 nM | NR | NR
O=C(Nc1ccccc1)Nc1ncnc2c1ncn2[C@@H]1O[C@H](COP(=O)(O)O)C2OC(C#Cc3ccccc3)O[C@@H]21 (some centres unmarked) [Compound 31, 2′,3′-phenylpropargyl acetal-6-N-phenylurea AMP] | NR | NR | 230 nM | NR | NR
CCCCNC(=O)Nc1ncnc2c1ncn2[C@@H]1O[C@H](COP(=O)(O)O)C2OC(C#Cc3ccccc3)O[C@@H]21 (some centres unmarked) [Compound 33, 2′,3′-phenylpropargyl acetal-6-N-n-butylurea AMP] | NR | NR | 67 nM | NR | NR
